# Experimental data: patent US11345694B2, “Antibacterial compounds” (DISCUVA LTD., priority 2017, dated 2022)
# Tests used:
# [1] = system: Staphylococcus aureus ATCC 35556 (SA); assay: MIC broth microdilution; format: cell-based; details: ATCC35556
# Description: (§1) Minimum Inhibitory Concentrations (MICs) versus planktonic bacteria are determined by the broth microdilution procedure according to the guidelines of the Clinical and Laboratory Standards Institute (Clinical and Laboratory Standards Institute. Methods for Dilution Antimicrobial Susceptibility Tests for Bacteria That Grow Aerobically; Approved Standard-tenth Edition. CLSI document M07-A10, 2015). The broth dilution method involves a two-fold serial dilution of compounds in 96-well microtitre plates, giving a final concentration range of 0.39-200 μM and a maximum final concentration of 2% DMSO. The bacterial strains tested include Escherichia coli K12 (EC), E. coli NCTC 13441 (UPEC), Staphylococcus aureus ATCC 35556 (SA), Acinetobacter baumannii ATCC 17978 (AB), Pseudomonas aeruginosa ATCC 33359 (PA), Enterobacter cloacae DSM 30054 (Ed), Serratia marcescens SL1344 (Sm), Salmonella typhimurium XNAA5 (St), Klebsiella pneumoniae ATCC 10031 (KP2), K. pneumoniae NCTC 13438 (KP1), K. pneumoniae ATCC 700603 (KP3), Klebsiella pneumoniae ATCC 51504 (KP4), K. pneumoniae H154680676 (KP5), K. pneumoniae H154020667 (KP6), K. pneumoniae H154640784 (KP7), K. pneumoniae H154600588 (KP8), K. pneumoniae H154300688 (KP9), K. pneumoniae H151440671 (KP10). Strains are grown in cation-adjusted Müller-Hinton broth or on Luria Bertoni agar at 37° C. in an ambient atmosphere. The MIC is determined as the lowest concentration of compound that inhibits growth following a 20-24 hour incubation period.
# [2] = system: Klebsiella pneumoniae ATCC 10031 (KP2); assay: MIC broth microdilution; format: cell-based; details: ATCC10031
# Description: as §1
# [3] = system: Escherichia coli K12 (EC); assay: MIC broth microdilution; format: cell-based
# Description: as §1
# [4] = system: Pseudomonas aeruginosa ATCC 33359 (PA); assay: MIC broth microdilution; format: cell-based; details: ATCC33359
# Description: as §1
# [5] = system: Acinetobacter baumannii ATCC 17978 (AB); assay: MIC broth microdilution; format: cell-based; details: ATCC17978
# Description: as §1
# [6] = system: E. coli NCTC 13441 (UPEC); assay: MIC broth microdilution; format: cell-based, Escherichia coli; details: Escherichia coli, NCTC13441
# Description: as §1
# [7] = system: K. pneumoniae NCTC 13438 (KP1); assay: MIC broth microdilution; format: cell-based, Klebsiella pneumoniae; details: Klebsiella pneumoniae, NCTC13438
# Description: as §1
# [8] = system: human hepatocarcinoma cell line ATCC HB-8065 (HepG2); assay: Human cell viability (CellTiter-Glo); format: cell-based; details: Homo sapiens; HepG2 cells, 24 h incubation, CellTiter-Glo luminescence, 0.2-100 μM; read-out: IC50 values against the HepG2 cell line
# Description: Compounds are assessed for potential non-specific cytotoxic effects against the human hepatocarcinoma cell line ATCC HB-8065 (HepG2). HepG2 cells are seeded at 20,000 cells/well in 96-well microtitre plates in minimal essential medium (MEM) supplemented with a final concentration of 10% FBS. After 24 h, compound dilutions are prepared in MEM supplemented with a final concentration of 1% FBS, and added to the cells. Compounds are tested in two-fold serial dilutions over a final concentration range of 0.2-100 μM in a final DMSO concentration of 1% vol/vol. Thioridazine is used as a positive control. Cells are incubated with compound at 37° C. and 5% CO2 for a further 24 h, after which time the CellTiter-Glo reagent (Promega) is added. Luminescence is measured on a Perkin Elmer Envision plate reader. Data are analysed using a 4 parameter logistic regression to determine the concentration of compound that inhibits cell viability by fifty percent (IC50).
Structure (SMILES),MIC [1] [µM],MIC [2] [µM],MIC [3] [µM],MIC [4] [µM],MIC [5] [µM],MIC [6] [µM],MIC [7] [µM],IC50 [8] [µM]
"Cc1cc(-c2[nH]c(N)nc2-c2ccc3c(c2)CC(C)O3)ccn1 (racemic) [Example 41, 4-(2-Methyl-2,3-dihydrobenzofuran-5-yl)-5-(2-methylpyridin-4-yl)-1H-imidazol-2-amine]",> 100,≤ 1,≤ 1,> 100,> 100,≤ 1,1 to 10,> 100
Cc1cc(-c2[nH]c(CN)nc2-c2ccc3c(c2)NCCO3)ccn1 [Compound 88],> 100,≤ 1,1 to 10,> 100,> 100,1 to 10,10 to 100,> 100
"COc1ccc(-c2[nH]c(N)nc2-c2ccnc(C)c2)cc1OC [Example 1, 5-(3,4-Dimethoxyphenyl)-4-(2-methylpyridin-4-yl)-1H-imidazol-2-amine]",> 100,≤ 1,10 to 100,> 100,> 100,10 to 100,> 100,> 100
"Nc1nc(-c2ccc3c(c2)OCCO3)c(-c2cccnc2)[nH]1 [Example 22, 4-(2,3-Dihydrobenzo[b][1,4]dioxin-6-yl)-5-(pyridin-3-yl)-1H-imidazol-2-amine]",> 100,1 to 10,> 100,> 100,> 100,> 100,> 100,
Nc1nc(-c2ccncn2)c(-c2ccc3c(c2)OCCO3)[nH]1 [Example 30],> 100,1 to 10,10 to 100,> 100,> 100,10 to 100,> 100,
"Cc1cc(-c2[nH]c(N)nc2-c2ccc3c(c2)N(CC2CC2)C(=O)CO3)ccn1 [Example 67, 6-(2-Amino-4-(2-methylpyridin-4-yl)-1H-imidazol-5-yl)-4-(cyclopropylmethyl)-2H-benzo[b][1,4]oxazin-3(4H)-one]",> 100,≤ 1,1 to 10,> 100,> 100,1 to 10,10 to 100,
"Cc1cc(-c2[nH]c(N)nc2-c2ccc3c(c2)N(C(C)C)C(=O)CO3)ccn1 [Example 68, 6-(2-Amino-4-(2-methylpyridin-4-yl)-1H-imidazol-5-yl)-4-isopropyl-2H-benzo[b][1,4]oxazin-3(4H)-one]",> 100,≤ 1,1 to 10,> 100,> 100,1 to 10,10 to 100,
"Cc1cc(-c2[nH]c(N)nc2-c2ccc3c(c2)N(C2CCCC2)C(=O)CO3)ccn1 [Example 69, 6-(2-Amino-4-(2-methylpyridin-4-yl)-1H-imidazol-5-yl)-4-cyclopentyl-2H-benzo[b][1,4]oxazin-3(4H)-one]",> 100,≤ 1,1 to 10,> 100,> 100,1 to 10,10 to 100,
"Cc1cc(-c2nc(N)[nH]c2-c2ccc3c(c2)N(CCOCCO)C(=O)CO3)ccn1 [Example 70, 6-(2-Amino-4-(2-methylpyridin-4-yl)-1H-imidazol-5-yl)-4-(2-(2-hydroxyethoxy)ethyl)-2H-benzo[b][1,4]oxazin-3(4H)-one]",> 100,≤ 1,1 to 10,> 100,> 100,1 to 10,10 to 100,
"CC(=O)Nc1nc(-c2ccc3c(c2)OCCO3)c(-c2ccnc(C)c2)[nH]1 [Example 72, N-(4-(2,3-Dihydrobenzo[b][1,4]dioxin-6-yl)-5-(2-methylpyridin-4-yl)-1H-imidazol-2-yl)acetamide]",> 100,1 to 10,> 100,> 100,> 100,> 100,> 100,
"Cc1cc(-c2c(-c3ccc4c(c3)OCCO4)nc(N)n2C)ccn1 [Example 73, 4-(2,3-dihydrobenzo[b][1,4]dioxin-6-yl)-1-methyl-5-(2-methylpyridin-4-yl)-1H-imidazol-2-amine]",> 100,> 100,> 100,> 100,> 100,> 100,> 100,
"CNc1nc(-c2ccc3c(c2)NCCO3)c(-c2ccnc(C)c2)[nH]1 [Example 78, 4-(3,4-Dihydro-2H-benzo[b][1,4]oxazin-6-yl)-N-methyl-5-(2-methylpyridin-4-yl)-1H-imidazol-2-amine]",> 100,≤ 1,1 to 10,> 100,> 100,1 to 10,10 to 100,
"Cc1cc(-c2[nH]c(N(C)C)nc2-c2ccc3c(c2)NCCO3)ccn1 [Example 79, 4-(3,4-Dihydro-2H-benzo[b][1,4]oxazin-6-yl)-N,N-dimethyl-5-(2-methylpyridin-4-yl)-1H-imidazol-2-amine]",> 100,1 to 10,10 to 100,> 100,> 100,1 to 10,> 100,
"Cc1cc(-c2[nH]c(=O)[nH]c2-c2ccc3c(c2)OCCO3)ccn1 [Example 82, 4-(2,3-Dihydrobenzo[b][1,4]dioxin-6-yl)-5-(2-methylpyridin-4-yl)-1,3-dihydro-2H-imidazol-2-one]",> 100,≤ 1,10 to 100,> 100,> 100,10 to 100,> 100,
"Cc1cc(-c2[nH]c(N)nc2-c2ccc3c(c2)N(CCOCCO)CCO3)ccn1 [Example 95, 2-(2-(6-(2-Amino-5-(2-methylpyridin-4-yl)-1H-imidazol-4-y1)-2,3-dihydro-4H-benzo[b][1,4]oxazin-4-yl)ethoxy)ethan-1-ol]",> 100,≤ 1,1 to 10,> 100,> 100,1 to 10,10 to 100,
